From patent publication US8962843B2, “1,3,4-oxadiazole and 1,3,4-thiadiazole beta-lactamase inhibitors” (priority 2012, dated 2015)
Structures can show the parent of a compound that is named as a salt.

Assays:
[1] = test system: bacterial strains that express KPC β-lactamases; test: Standard BLI potentiation MIC / synergy MIC assays, strains expressing KPC β-lactamases; assay type: cell-based; conditions: in combination with a β-lactam; comparator Avibactam
Outline: (§1)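 Broth microdilution in cation-adjusted Mueller Hinton broth per CLSI M07-A9, ~10^5 CFU/mL, 18-20 h at 37 °C with aeration; engineered E. coli carrying β-lactamase plasmids kept on 25 μg/mL tetracycline. β-lactam MIC measured in 2-fold dilutions (128-0.13 μg/mL) with BLI fixed at 4 μg/mL; sMIC titrates BLI against a fixed β-lactam concentration. MIC = lowest concentration without visible turbidity.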

[2] = test system: bacterial strains that express the class D cephalosporinase OXA-15; test: Standard BLI potentiation MIC / synergy MIC assays, strains expressing OXA-15; assay type: cell-based, E. coli; conditions: in combination with a β-lactam; comparator Avibactam (CCC)
Outline: as §1

N=C(N)Nc1nnc([C@@H]2CC[C@@H]3CN2C(=O)N3OS(=O)(=O)O)o1 [Compound 738, (2S,5R)-2-(5-guanidino-1,3,4-oxadiazol-2-yl)-7-oxo-1,6-diazabicyclo[3.2.1]octan-6-yl hydrogen sulfate]
activity and/or spectrum of activity against bacterial strains that express KPC β-lactamases, compared with Avibactam [1]: more active than Avibactam for at least one, bacterial strain that expresses KPC β-lactamase and/or show a better spectrum of activity
activity against bacterial strains that express the class D cephalosporinase OXA-15, compared with Avibactam [2]: more active than Avibactam

C[n+]1ccc(-c2nnc([C@@H]3CC[C@@H]4CN3C(=O)N4OS(=O)(=O)[O-])o2)cc1 [Compound 782, (2S,5R)-2-(5-(1-methylpyridin-1-ium-4-yl)-1,3,4-oxadiazol-2-yl)-7-oxo-1,6-diazabicyclo[3.2.1]octan-6-yl sulfate]
activity and/or spectrum of activity against bacterial strains that express KPC β-lactamases, compared with Avibactam [1]: more active than Avibactam for at least one, bacterial strain that expresses KPC β-lactamase and/or show a better spectrum of activity
activity against bacterial strains that express the class D cephalosporinase OXA-15, compared with Avibactam [2]: more active than Avibactam

O=C1N2C[C@@H](CC[C@H]2c2nnc(C3CCNC3)o2)N1OS(=O)(=O)O (stereo partly drawn) [Compound 710, (2S,5R)-7-oxo-2-(5-(pyrrolidin-3-yl)-1,3,4-oxadiazol-2-yl)-1,6-diazabicyclo[3.2.1]octan-6-yl hydrogen sulfate]
activity and/or spectrum of activity against bacterial strains that express KPC β-lactamases, compared with Avibactam [1]: more active than Avibactam for at least one, bacterial strain that expresses KPC β-lactamase and/or show a better spectrum of activity
activity against bacterial strains that express the class D cephalosporinase OXA-15, compared with Avibactam [2]: more active than Avibactam

NCCCc1nnc([C@@H]2CC[C@@H]3CN2C(=O)N3OS(=O)(=O)O)o1 [Compound 720, (2S,5R)-2-(5-(3-aminopropyl)-1,3,4-oxadiazol-2-yl)-7-oxo-1,6-diazabicyclo[3.2.1]octan-6-yl hydrogen sulfate]
activity and/or spectrum of activity against bacterial strains that express KPC β-lactamases, compared with Avibactam [1]: more active than Avibactam for at least one, bacterial strain that expresses KPC β-lactamase and/or show a better spectrum of activity
activity against bacterial strains that express the class D cephalosporinase OXA-15, compared with Avibactam [2]: more active than Avibactam

N=C(N)NCc1nnc([C@@H]2CC[C@@H]3CN2C(=O)N3OS(=O)(=O)O)s1 [Compound 721, (2S,5R)-2-(5-(guanidinomethyl)-1,3,4-thiadiazol-2-yl)-7-oxo-1,6-diazabicyclo[3.2.1]octan-6-yl hydrogen sulfate]
activity and/or spectrum of activity against bacterial strains that express KPC β-lactamases, compared with Avibactam [1]: more active than Avibactam for at least one, bacterial strain that expresses KPC β-lactamase and/or show a better spectrum of activity
activity against bacterial strains that express the class D cephalosporinase OXA-15, compared with Avibactam [2]: more active than Avibactam

N=C(N)NCC(O)Cc1nnc([C@@H]2CC[C@@H]3CN2C(=O)N3OS(=O)(=O)O)o1 (stereo partly drawn) [Compound 730, (2S,5R)-2-(5-(3-guanidino-2-hydroxypropyl)-1,3,4-oxadiazol-2-yl)-7-oxo-1,6-diazabicyclo[3.2.1]octan-6-yl hydrogen sulfate]
activity and/or spectrum of activity against bacterial strains that express KPC β-lactamases, compared with Avibactam [1]: more active than Avibactam for at least one, bacterial strain that expresses KPC β-lactamase and/or show a better spectrum of activity
activity against bacterial strains that express the class D cephalosporinase OXA-15, compared with Avibactam [2]: more active than Avibactam

N=C(N)N[C@H]1C[C@@H](c2nnc([C@@H]3CC[C@@H]4CN3C(=O)N4OS(=O)(=O)O)o2)C1 [Compound 749, (2S,5R)-2-(5-((1s,3R)-3-guanidinocyclobutyl)-1,3,4-oxadiazol-2-yl)-7-oxo-1,6-diazabicyclo[3.2.1]octan-6-yl hydrogen sulfate]
activity and/or spectrum of activity against bacterial strains that express KPC β-lactamases, compared with Avibactam [1]: more active than Avibactam for at least one, bacterial strain that expresses KPC β-lactamase and/or show a better spectrum of activity
activity against bacterial strains that express the class D cephalosporinase OXA-15, compared with Avibactam [2]: more active than Avibactam

O=C1N2C[C@@H](CC[C@H]2c2nnc(CCCNC3CCNCC3)o2)N1OS(=O)(=O)O [Compound 771, (2S,5R)-7-oxo-2-(5-(3-(piperidin-4-ylamino)propyl)-1,3,4-oxadiazol-2-yl)-1,6-diazabicyclo[3.2.1]octan-6-yl hydrogen sulfate]
activity and/or spectrum of activity against bacterial strains that express KPC β-lactamases, compared with Avibactam [1]: more active than Avibactam for at least one, bacterial strain that expresses KPC β-lactamase and/or show a better spectrum of activity
activity against bacterial strains that express the class D cephalosporinase OXA-15, compared with Avibactam [2]: more active than Avibactam

CC(C)(N)Cc1nnc([C@@H]2CC[C@@H]3CN2C(=O)N3OS(=O)(=O)O)o1 [Compound 737, (2S,5R)-2-(5-(2-amino-2-methylpropyl)-1,3,4-oxadiazol-2-yl)-7-oxo-1,6-diazabicyclo[3.2.1]octan-6-yl hydrogen sulfate]
activity and/or spectrum of activity against bacterial strains that express KPC β-lactamases, compared with Avibactam [1]: more active than Avibactam for at least one, bacterial strain that expresses KPC β-lactamase and/or show a better spectrum of activity
activity against bacterial strains that express the class D cephalosporinase OXA-15, compared with Avibactam [2]: more active than Avibactam

O=C1N2C[C@@H](CC[C@H]2c2nnc(COC3CNC3)o2)N1OS(=O)(=O)O [Compound 744, (2S,5R)-2-(5-((azetidin-3-yloxy)methyl)-1,3,4-oxadiazol-2-yl)-7-oxo-1,6-diazabicyclo[3.2.1]octan-6-yl hydrogen sulfate]
activity and/or spectrum of activity against bacterial strains that express KPC β-lactamases, compared with Avibactam [1]: more active than Avibactam for at least one, bacterial strain that expresses KPC β-lactamase and/or show a better spectrum of activity
activity against bacterial strains that express the class D cephalosporinase OXA-15, compared with Avibactam [2]: more active than Avibactam

CNCCc1nnc([C@@H]2CC[C@@H]3CN2C(=O)N3OS(=O)(=O)O)o1 [Compound 722, (2S,5R)-2-(5-(2-(methylamino)ethyl)-1,3,4-oxadiazol-2-yl)-7-oxo-1,6-diazabicyclo[3.2.1]octan-6-yl hydrogen sulfate]
activity and/or spectrum of activity against bacterial strains that express KPC β-lactamases, compared with Avibactam [1]: more active than Avibactam for at least one, bacterial strain that expresses KPC β-lactamase and/or show a better spectrum of activity
activity against bacterial strains that express the class D cephalosporinase OXA-15, compared with Avibactam [2]: more active than Avibactam

O=C1N2C[C@@H](CC[C@H]2c2nnc(C3CCNCC3)o2)N1OS(=O)(=O)O [Compound 711, (2S,5R)-7-oxo-2-(5-(piperidin-4-yl)-1,3,4-oxadiazol-2-yl)-1,6-diazabicyclo[3.2.1]octan-6-yl hydrogen sulfate]
activity and/or spectrum of activity against bacterial strains that express KPC β-lactamases, compared with Avibactam [1]: more active than Avibactam for at least one, bacterial strain that expresses KPC β-lactamase and/or show a better spectrum of activity
activity against bacterial strains that express the class D cephalosporinase OXA-15, compared with Avibactam [2]: more active than Avibactam

N=C1NCC(c2nnc([C@@H]3CC[C@@H]4CN3C(=O)N4OS(=O)(=O)O)o2)N1 (stereo partly drawn) [Compound 767, (2S,5R)-2-(5-(2-iminoimidazolidin-4-yl)-1,3,4-oxadiazol-2-yl)-7-oxo-1,6-diazabicyclo[3.2.1]octan-6-yl hydrogen sulfate]
activity and/or spectrum of activity against bacterial strains that express KPC β-lactamases, compared with Avibactam [1]: more active than Avibactam for at least one, bacterial strain that expresses KPC β-lactamase and/or show a better spectrum of activity
activity against bacterial strains that express the class D cephalosporinase OXA-15, compared with Avibactam [2]: more active than Avibactam

N[C@@H]1CC[C@H](c2nnc([C@@H]3CC[C@@H]4CN3C(=O)N4OS(=O)(=O)O)o2)C1 [Compound 729, (2S,5R)-2-(5-((1S,3R)-3-aminocyclopentyl)-1,3,4-oxadiazol-2-yl)-7-oxo-1,6-diazabicyclo[3.2.1]octan-6-yl hydrogen sulfate]
activity and/or spectrum of activity against bacterial strains that express KPC β-lactamases, compared with Avibactam [1]: more active than Avibactam for at least one, bacterial strain that expresses KPC β-lactamase and/or show a better spectrum of activity
activity against bacterial strains that express the class D cephalosporinase OXA-15, compared with Avibactam [2]: more active than Avibactam

O=C1N2C[C@@H](CC[C@H]2c2nnc(CC3CCNC3)o2)N1OS(=O)(=O)O (stereo partly drawn) [Compound 764, (2S,5R)-7-oxo-2-(5-(pyrrolidin-3-ylmethyl)-1,3,4-oxadiazol-2-yl)-1,6-diazabicyclo[3.2.1]octan-6-yl hydrogen sulfate]
activity and/or spectrum of activity against bacterial strains that express KPC β-lactamases, compared with Avibactam [1]: more active than Avibactam for at least one, bacterial strain that expresses KPC β-lactamase and/or show a better spectrum of activity
activity against bacterial strains that express the class D cephalosporinase OXA-15, compared with Avibactam [2]: more active than Avibactam

N[C@H]1CC[C@@H](c2nnc([C@@H]3CC[C@@H]4CN3C(=O)N4OS(=O)(=O)O)o2)C1 [Compound 768, (2S,5R)-2-(5-((1R,3S)-3-aminocyclopentyl)-1,3,4-oxadiazol-2-yl)-7-oxo-1,6-diazabicyclo[3.2.1]octan-6-yl hydrogen sulfate]
activity and/or spectrum of activity against bacterial strains that express KPC β-lactamases, compared with Avibactam [1]: more active than Avibactam for at least one, bacterial strain that expresses KPC β-lactamase and/or show a better spectrum of activity
activity against bacterial strains that express the class D cephalosporinase OXA-15, compared with Avibactam [2]: more active than Avibactam

N=C(N)N1CC(NCc2nnc([C@@H]3CC[C@@H]4CN3C(=O)N4OS(=O)(=O)O)o2)C1 [Compound 746, (2S,5R)-2-(5-(((1-carbamimidoylazetidin-3-yl)amino)methyl)-1,3,4-oxadiazol-2-yl)-7-oxo-1,6-diazabicyclo[3.2.1]octan-6-yl hydrogen sulfate]
activity and/or spectrum of activity against bacterial strains that express KPC β-lactamases, compared with Avibactam [1]: more active than Avibactam for at least one, bacterial strain that expresses KPC β-lactamase and/or show a better spectrum of activity
activity against bacterial strains that express the class D cephalosporinase OXA-15, compared with Avibactam [2]: more active than Avibactam
